According to patent publication US12117455B2, “Early detection marker for degenerative osteoarthritis with TRIM24-RIP3 axis” (AJOU UNIVERSITY INDUSTRY-ACADEMIC COOPERATION FOUNDATION, priority 2020, dated 2024):
“Also recorded” adds a separate entry of the source. Where a SMILES comes first, the peptide text is derived from it. The star is where a group is joined. Cbz = O=C(OCc1ccccc1)*

Legend:
chondrocytes = assay: Cell viability / cytotoxicity by LDH assay in chondrocytes; format: cell-based, mouse; conditions: for cytotoxic effects on chondrocytes (LDH release assay, Western blotting, phase-contrast microscopy): chondrocytes infected with Ad-C or Ad-Rip3
Description: Mouse articular chondrocytes were isolated from the cartilage of ICR mice on the 5th day after birth, enzymatically digested with protease and collagenase, and then maintained in DMEM (Capricorn Scientific GmbH: Hessen, Germany) supplemented with 10% FBS, 100 units/mL penicillin and 100 μg/mL streptomycin. On the 3rd day, cells (4.25×10^5 cells/well) were infected with adenovirus or treated with recombinant protein. Mlkl+/+ and Mlkl−/− MEFs were maintained in DMEM supplemented with 10% FBS and penicillin-streptomycin. Cell viability was assessed using a lactate dehydrogenase (LDH) colorimetric assay kit (Bio Vision (Milpitas, CA, USA)). Chondrocytes were dispensed into a 96-well dish (1.5×10^4 cells/well), cultured for 24 hours (5% CO2, 37° C.), and treated with various concentrations of AZ-628, selumetinib, and neratinib for 24 hours. The supernatant was analyzed using a microplate reader at 495 nm. Untreated (100% viable) and Triton X-100 treated (0% viable) samples were used for normalization. The viability was calculated as follows.

[1] = tested on: RIP3-overexpressing chondrocytes; assay: MMP3, MMP13 and COX2 expression (RT-PCR, qPCR, Western blotting) in Ad-Rip3-infected chondrocytes; format: cell-based, mouse
Description: (§1) Mouse articular chondrocytes were isolated from the cartilage of ICR mice on the 5th day after birth, enzymatically digested with protease and collagenase, and then maintained in DMEM (Capricorn Scientific GmbH: Hessen, Germany) supplemented with 10% FBS, 100 units/mL penicillin and 100 μg/mL streptomycin. On the 3rd day, cells (4.25×10^5 cells/well) were infected with adenovirus or treated with recombinant protein. Mlkl+/+ and Mlkl−/− MEFs were maintained in DMEM supplemented with 10% FBS and penicillin-streptomycin.
(§2) Cells were lysed in an M2 buffer, and mouse tissues were lysed in a lysis buffer containing 50 mM Tris-HCl (pH 7.5), 150 mM NaCl, 50 mM NaF, 1% Tween 20, 0.2% NP-40, and a protease inhibitor. Equal amounts of cell extracts were separated using SDS-PAGE (6% stacking gel and 10% running gel) and analyzed through immunoblotting.
Total RNA was extracted from articular chondrocytes using a TRIzol reagent (Molecular Research Center (Cincinnati, OH, USA)) and then reverse-transcribed into complementary DNA (cDNA) using ImProm-II™ Transcriptase (Promega (Madison, WI, USA)), followed by amplification through PCR or qPCR using the primers shown in Table 2 below. qPCR was performed using SYBR premix Ex Taq (TaKaRa Bio., Kusatsu, Shiga, Japan), and the results thereof were normalized to Gapdh and represented as fold changes compared to controls.

RIP3 = molecular target: T1, RIP3 (Mus musculus, UniProt Q9QZL0); assay: RIP3 kinase activity / RIP3 phosphorylation by Western blotting in Ad-Rip3-infected chondrocytes; format: cell-based; conditions: RIP3-overexpressing chondrocytes
T1 construct: host or cells: primary mouse articular chondrocytes (ICR mice), adenoviral infection
T1 sequence (Q9QZL0 whole entry): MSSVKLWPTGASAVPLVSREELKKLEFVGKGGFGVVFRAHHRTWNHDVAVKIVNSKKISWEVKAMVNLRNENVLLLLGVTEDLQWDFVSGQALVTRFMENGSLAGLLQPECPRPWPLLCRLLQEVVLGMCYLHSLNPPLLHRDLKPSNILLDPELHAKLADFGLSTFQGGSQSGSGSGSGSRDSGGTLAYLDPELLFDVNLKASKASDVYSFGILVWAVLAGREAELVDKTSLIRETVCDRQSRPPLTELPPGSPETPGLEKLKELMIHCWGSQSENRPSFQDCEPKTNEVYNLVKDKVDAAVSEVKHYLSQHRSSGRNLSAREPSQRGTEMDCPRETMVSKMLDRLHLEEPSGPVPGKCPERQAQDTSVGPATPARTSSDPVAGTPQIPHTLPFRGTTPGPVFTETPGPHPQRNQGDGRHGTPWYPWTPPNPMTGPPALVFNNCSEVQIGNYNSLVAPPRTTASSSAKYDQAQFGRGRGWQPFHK
Description: as §1, §2

MLKL = MLKL protein levels in chondrocytes treated with proteasome or lysosome inhibitors (Western blotting); format: cell-based, mouse; conditions: treatment for 6 hours
Description: as §2

| Compound | cytotoxic effects on chondrocytes (LDH release assay, Western blotting, phase-contrast microscopy) (chondrocytes) | MLKL protein levels (MLKL) | further results |
| --- | --- | --- | --- |
| Cc1ccc(NC(=O)c2cccc(C(C)(C)C#N)c2)cc1Nc1ccc2ncn(C)c(=O)c2c1 [AZ-628] | without chondrocyte toxicity |  | cytotoxic effects in chondrocytes (LDH assay) (chondrocytes; at 2 μM, 24 hours): no toxicity; inhibition of osteoarthritis manifestations in RIP3-overexpressing chondrocytes ([1]; compared with selumetinib or neratinib): more effectively inhibited; Mmp3 and Cox2 expression (osteoarthritis-related gene expression) ([1]; qPCR, RIP3-overexpressing chondrocytes treated with RIP3 kinase inhibitors): decreased; also recorded: attenuated; RIP3 (kinase) activity (RIP3): potent RIP3 kinase inhibitor; also recorded: attenuates RIP3 kinase activity |
| CCN(CC)CCCC(C)Nc1ccnc2cc(Cl)ccc12 (stereo not drawn) [CQ, Chloroquine diphosphate] |  | did not change |  |
| CC(C)S(=O)(=O)c1ccc2nccc(Nc3ccc4scnc4c3)c2c1 [GSK 872] | greater cytotoxic effects on chondrocytes than AZ-628 |  |  |
| CC(C)C[C@@H](C=O)NC(=O)[C@H](CC(C)C)NC(=O)[C@H](CC(C)C)NC(=O)OCc1ccccc1 [MG132] (Cbz-Leu-Leu-Leu-aldehyde) |  | did not change |  |
| HS-1371 | greater cytotoxic effects on chondrocytes than AZ-628 |  |  |
